Results reported in publication PMC10374545, “A small molecule inhibitor of PTP1B and PTPN2 enhances T cell anti-tumor immunity” (Nature Communications, 2023).
Where “and” joins values, the source holds several entries; their conditions need not be identical. Equal values may be shown once.

Experiments:
[1] = system: AT3 mammary tumors; experiment: AT3 tumor growth, Compound 182 with α-PD-1 checkpoint blockade; type: in vivo, mouse
Experimental: (§1) Male or female mice were injected subcutaneously with 5 × 10^5 MC38 tumor cells resuspended in 100 μl D-PBS into the flank. Alternatively, female mice were injected orthotopically with 5 × 10^5 AT3 or AT3-OVA or PTPN2-deleted AT3 or AT3-OVA tumor cells resuspended in 20 μl D-PBS into the fourth mammary fat pad. Tumor sizes were measured in two dimensions (mm^2) using electronic callipers two to three times per week as soon as tumors were palpable (20–25 mm^2).
In addition, mice received four intraperitoneal injections of α-PD-1 (200 μg in 200 μl D-PBS; clone RMP1-14), or rat IgG2a isotype control (100 μg in 200 μl D-PBS, Bio X Cell) twice per week.

[2] = system: OT-I CD8+ T cells; experiment: T cell activation assay (CD25, CD69 by flow cytometry); type: cell-based, mouse; details: for CD25, group mean (Mean 2) / CD69, group mean (Mean 2): Fig. 2A; for CD25 (MFI), single replicates / CD69 (MFI), single replicates: N4 1 nM, 1 μM, 48 h, Fig. 2A raw data
Experimental: The cell surface markers CD8, CD25, and CD69 were analyzed using fluorophore-conjugated antibodies by flow cytometry.

[3] = system: AT3-OVA mammary tumors; experiment: AT3-OVA tumor growth in Lck-Cre;Ptpn2fl/fl mice; type: in vivo, mouse; design: key to Tumour growth: tumour size in mm^2 (two-dimensional caliper measurement); details: for Tumour growth: AT3-OVA tumours, individual mice (Figure 7A)
Experimental: as §1

[4] = system: AT3-OVA mammary tumors; experiment: Tumor-infiltrating lymphocytes in AT3-OVA tumors (flow cytometry); type: in vivo, mouse; design: GRZMB, single mice / GRZMB, individual mice: unit not given here
Experimental: Single-cell suspensions from spleens and lymph nodes were obtained as described previously. For the detection of intracellular cytokines and granzyme B, T cells were fixed and permeabilized with the BD Cytofix/Cytoperm kit according to the manufacturer’s instructions. Briefly, T cells were first surface stained with fluorophore-conjugated antibodies and then fixed followed by permeabilization on ice for 20 min. Fixed and permeabilized cells were stained for IFN-γ, TNF, and granzyme B for 45 min at room temperature. For the detection of intracellular FoxP3 the Foxp3/Transcription Factor Staining Buffer Set (eBioscience) was used according to the manufacturer’s instructions. Briefly, cells were fixed and permeabilized for 1 h on ice followed by intracellular staining at room temperature for 45 min. For the detection of serum cytokines, the BD CBA Mouse Inflammation Kit™ was used according to the manufacturers’ instructions.
Cells (1 × 10^6/10 µl) were stained with the specified antibodies on ice for 30 min in D-PBS supplemented with 2% FBS in the dark and analyzed using a Fortessa or Symphony A3 (BD Biosciences). Data was acquired using BD FACS DIVA Software v8.0.1 and analyzed using FlowJo10 (Tree Star Inc.) software. Lymphocytes were gated for eYFP^+ cells to discriminate between PTPN2 sufficient and PTPN2 negative cells after poly(I:C)-induced PTPN2-deletion in Mx1-Cre;Ptpn2^fl/fl mice. For cell quantification, known numbers of Flow-Count Fluorospheres (Beckman Coulter) were added to samples before analysis. Dead cells were excluded with propidium iodide (1 μg/ml; Sigma-Aldrich). Paraformaldehyde fixed dead cells were excluded with the LIVE/DEAD™ Fixable Near-IR Dead Cell Stain Kit (Thermo Fisher Scientific).
(§2) Tumor-bearing mice were sacrificed and tumors were excised and digested at 37 °C for 30 min using a cocktail of 1 mg/ml collagenase type IV (Worthington Biochemicals) and 0.02 mg/ml DNase I (Sigma-Aldrich) in DMEM supplemented with 2% (v/v) FBS. Cells were passed through a 70 μm cell strainer (BD Biosciences) twice and processed for flow cytometry. For assessing T cell activation, cells were surface stained with fluorophore-conjugated antibodies to CD62L, CD44, PD-1, and TIM-3. For the assessment of NK cells, B cells, myeloid-derived suppressor cells (MDSCs), dendritic cells (DCs), and tumor-associated macrophages, cells were surface stained with fluorophore-conjugated antibodies to NK1.1, TCRβ, CD19, CD11b, CD11c, F4/80, Ly6C and Ly6G. For the detection of intracellular cytokines TNF and IFNγ, T cells were stimulated with PMA (20 ng/ml; Sigma-Aldrich) and ionomycin (1 μg/ml; Sigma-Aldrich) in the presence of GolgiPlug™ and GolgiStop™ (BD Biosciences) for 4 h at 37 °C in complete T cell medium. For the intracellular detection of granzyme B, cells were processed untreated without the addition of BD GolgiPlug™ and BD GolgiStop™.

[5] = system: AT3-OVA mammary tumors; experiment: Tumor-infiltrating lymphocytes in AT3-OVA tumors of Lck-Cre;Ptpn2fl/fl mice; type: in vivo, mouse; design: NK cells / Tregs / MDSCs / CD4 EM / CD8 EM / B cells / IFNg TNF / GRZMB: unit not given here
Experimental: as §2

[6] = Morbidity and overt toxicity in treated tumor-bearing mice
Experimental: Control animals received an injection at the same time of 200 μl of saline. Stock solutions were stored at −80 °C and thawed before each administration.

[7] = Lck-Cre;Ptpn2fl/fl (2K) OT-I cells, listed as 2KI
[8] = wild type OT-I cells + inhibitor, n 6
[9] = wild type OT-I cells, listed as WTI
[10] = C57BL/6, CMP-182 10 mg, n=8, Figure 5C
[11] = C57BL/6, CMP-182 10 mg, n=8, Figure 5D, in % (unit assumed)
[12] = C57BL/6, CMP-182 10 mg, n=8, Figure 5E
[13] = tumor-infiltrating CD8+ T cells, 10 mg/kg i.v., Fig. 3D raw data, listed as CMP-182, 10 mg/kg
[14] = Lck-Cre;Ptpn2fl/fl mice, individual mice (Figure 7D), listed as CMP-182
[15] = tumour-infiltrating cells, Lck-Cre;Ptpn2fl/fl mice n=6, individual mice (Figure 7C), listed as CMP-182

Structure (SMILES): CC(C)(O)CCOc1ccc2cc(O)c(N3CC(=O)NS3(=O)=O)c(F)c2c1 [Compound 182, 5-(1-Fluoro-3-hydroxy-7-(3-hydroxy-3-methylbutoxy)naphthalen-2-yl)−1,2,5-thiadiazolidin-3-one 1,1-dioxide]
- response of AT3 tumors to PD-1 checkpoint blockade ([1]; 10 mg/kg i.v. every 2 days with α-PD-1 200 μg i.p. twice per week): rendered otherwise largely resistant AT3 tumors sensitive
- AT3 tumor growth, combination therapy ([1]; Compound 182 10 mg/kg i.v. + α-PD-1 200 μg i.p.): marked repression
- Tumour weights ([1]; Figure 9C, AT-3, individual mice, listed as CMP-182, in mg (unit assumed)): 195 and 335 and 220 and 301 and 250 and 332
- CD25, group mean (Mean 2) ([2]; 2K OT-I cells + inhibitor, n 4): 49238
- CD69, group mean (Mean 2) ([2]; 2K OT-I cells + inhibitor, n 4): 3065
- CD25 (MFI), single replicates [2, 7]: 50690 and 58145 and 42341 and 45775
- CD69 (MFI), single replicates [2, 7]: 3049 and 3660 and 3360 and 2191
- antigen-induced activation of CD8+ T cells (CD25, CD69) ([2]; OT-I cells, SIINFEKL (N4)): enhanced
- CD25, group mean (Mean 2) [2, 8]: 43739
- CD69, group mean (Mean 2) [2, 8]: 2723
- CD25 (MFI), single replicates [2, 9]: 44120 and 42537 and 42315 and 46694 and 45914 and 40851
- CD69 (MFI), single replicates [2, 9]: 2509 and 2213 and 3486 and 2750 and 2693 and 2686
- growth of AT3-OVA tumors in Lck-Cre;Ptpn2fl/fl mice ([3]; 10 mg/kg i.v., effects modest): additionally repressed the growth
- Tumour growth ([3]; Lck-Cre;Ptpn2fl/fl mice n=6, day 7 post injection, listed as CMP-182): 39.6 and 38.4 and 28.91 and 24.91 and 14.4 and 25
- Tumour growth ([3]; Lck-Cre;Ptpn2fl/fl mice n=6, day 9 post injection, listed as CMP-182): 40.2 and 33 and 27.36 and 24.44 and 20.64 and 28.6
- Tumour growth ([3]; Lck-Cre;Ptpn2fl/fl mice n=6, day 11 post injection, listed as CMP-182): 40.8 and 26.46 and 22.5 and 19.89 and 25.38 and 17.64
- Tumour growth ([3]; Lck-Cre;Ptpn2fl/fl mice n=6, day 13 post injection, listed as CMP-182): 44.8 and 30.25 and 16 and 20.25 and 29.64 and 25.38
- Tumour growth ([3]; Lck-Cre;Ptpn2fl/fl mice n=6, day 16 post injection, listed as CMP-182): 44.16 and 40.92 and 16 and 18.9 and 20.68 and 31.11
- Tumour growth ([3]; Lck-Cre;Ptpn2fl/fl mice n=6, day 19 post injection, listed as CMP-182): 38.94 and 25 and 15.2 and 25.92 and 33.48 and 38.34
- Tumour growth ([3]; Lck-Cre;Ptpn2fl/fl mice n=6, day 22 post injection, listed as CMP-182): 38.94 and 28.08 and 25.08 and 22.36 and 21 and 35
- Tumour weights ([3]; Lck-Cre;Ptpn2fl/fl mice n=6, individual mice (Figure 7B), listed as CMP-182, in mg (unit assumed)): 123 and 76 and 120 and 82 and 67 and 156
- TILs in AT3-OVA tumors ([4]; 10 mg/kg i.v.): increased TILs
- accumulation of NK cells and B cells in AT3-OVA tumors ([4]; 10 mg/kg i.v.): increased the accumulation
- accumulation of Tregs and MDSCs in AT3-OVA tumors ([4]; 10 mg/kg i.v.): promoted the accumulation
- MDSCs, individual mice ([4]; C57BL/6, CMP-182 10 mg, n=7, Figure 5E): 48747.9 and 7096.22 and 17089.1 and 45092.3 and 47664.4 and 17646.1 and 31607.3
- CD4 EM, individual mice [4, 10]: 134557 and 47922.8 and 133424 and 44428.9 and 44587.5 and 55436.2 and 44822.8 and 60817.2
- CD8 EM, individual mice [4, 10]: 845401 and 186403 and 749030 and 169324 and 169003 and 192622 and 192657 and 178436
- GRZMB, individual mice ([4]; C57BL/6, CMP-182 10 mg, n=8, Figure 5D): 25.6 and 28.7 and 25.8 and 29.2 and 51.4 and 33.2 and 36 and 28.4
- IFNg TNF, individual mice [4, 11]: 24.8 and 30.6 and 32 and 36.2 and 36.6 and 36.4 and 24 and 30.7
- PD-1 TIM-3, individual mice [4, 11]: 77.9 and 62.8 and 78.4 and 65.6 and 64.1 and 65.4 and 72.7 and 54.7
- B cells, individual mice [4, 12]: 170944 and 179918 and 255526 and 193357 and 175857 and 145133 and 135399 and 202633
- NK cells, individual mice [4, 12]: 58558.9 and 29752.3 and 40599.7 and 35764.2 and 59533.6 and 52754.4 and 30362.6 and 33110.9
- Tregs, individual mice [4, 12]: 74115.4 and 20349.3 and 83872.7 and 21555.9 and 26849.8 and 29117.6 and 19831.6 and 35834.4
- CD4 CM TILS (median) ([4]; Figure 3B, column B, n=8): 11958, n=8
- CD4 EM TILS (median) ([4]; Figure 3B, column B, n=8): 57270, n=8
- CD8 CM TILS (median) ([4]; Figure 3B, column B, n=8): 16228, n=8
- CD8 EM TILS (median) ([4]; Figure 3B, column B, n=8): 275442, n=8
- B cells TILS (median) ([4]; Figure 3C, column B, n=8): 364105, n=8
- MDSCs TILS (median) ([4]; Figure 3C, column B, n=8): 8604, n=8
- Nk cells TILS (median) ([4]; Figure 3C, column B, n=8): 52917, n=8
- Tregs TILS (median) ([4]; Figure 3C, column B, n=8): 35282, n=8
- GRZB TILS (median) ([4]; Figure 3D, column B, n=8): 35.20, n=8
- IFNg TNF TILS (median) ([4]; Figure 3D, column B, n=8): 31.60, n=8
- PD-1 Lag-3 TILS (median) ([4]; Figure 3D, column B, n=8): 35.10, n=8
- PD-1 TIM-3 TILS (median) ([4]; Figure 3D, column B, n=8): 50.75, n=8
- GRZMB, single mice [4, 13]: 38.7 and 39 and 35.1 and 25.9 and 27.7 and 35.3 and 28.6 and 36.2
- PD-1 LAG-3, single mice [4, 13]: 39.6 and 36.2 and 34 and 27 and 25.2 and 33.5 and 41.6
- PD-1 TIM-3, single mice ([4]; tumor-infiltrating CD8+ T cells, 10 mg/kg i.v., Fig. 3D raw data, listed as CMP-182, 10 mg/kg, in % (unit assumed)): 64.6 and 50.1 and 56.3 and 51.4 and 49.7 and 42.6 and 48.5 and 63
- IFNγ+TNF+ infiltrating CD8+ T cells in Lck-Cre;Ptpn2fl/fl mice ([5]; 10 mg/kg i.v.): significantly increased
- GRZMB [5, 14]: 75.7 and 29.8 and 80.2 and 60 and 76.3 and 38.3
- IFNg TNF [5, 14]: 26.1 and 36.3 and 38 and 37.5 and 35.3 and 36.7
- TILs in AT3-OVA tumors of Lck-Cre;Ptpn2fl/fl mice ([5]; compared with untreated Lck-Cre;Ptpn2fl/fl mice): not accompanied by any significant changes
- B cells [5, 15]: 170392 and 46995.6 and 105275 and 126695 and 155871 and 80840.6
- CD4 EM [5, 15]: 52213.7 and 43853.2 and 131869 and 64047.3 and 133510 and 49758.5
- CD8 EM [5, 15]: 137803 and 79204.9 and 701666 and 167038 and 463610 and 106200
- MDSCs [5, 15]: 220000 and 235417 and 32287.6 and 56721.3 and 90563.2 and 25765.3
- NK cells [5, 15]: 58097.7 and 15907.7 and 22173.4 and 86915 and 66469.7 and 20906.1
- Tregs [5, 15]: 31347.8 and 26539.2 and 15097.8 and 25883.4 and 26206.9 and 21641.1
- morbidity or systemic inflammation ([6]; AT3-OVA tumor-bearing mice, 10 mg/kg i.v.): not accompanied by overt signs of morbidity or systemic inflammation
- overt toxicities ([6]; dosing every two days): did not result in any overt toxicities
